Test results published in patent US20200352905A1, “6-(2,4-DICHLOROPHENYL)-5-[4-[(3S)-1-(3-FLUOROPROPYL)PYRROLIDIN-3-YL]OXYPHENYL]-8,9-DIHYDRO-7H-BENZO[7]ANNULENE-2-CARBOXYLIC ACID FOR USE IN METASTATIC OR ADVANCED BREAST CANCER PATIENTS” (SANOFI, priority 2019, published 2020).
Several values for one entry are separate records, joined by “and”; a condition that tells them apart may be missing. Equal values may be shown once. Read-outs that look alike come from different tables or passages of the source.

Test: TED14856 Part A: plasma pharmacokinetics of compound (1)
Assay type: in vivo, human
[1] = repeated 20 mg once daily, Cycle1 Day 22, fasted, N=3
[2] = repeated 150 mg once daily, Cycle1 Day 22, fasted, N=2
[3] = repeated 200 mg once daily, Cycle1 Day 22, fasted, N=3
[4] = repeated 400 mg once daily, Cycle1 Day 22, fasted, N=3
[5] = repeated 600 mg once daily, Cycle1 Day 22, fasted, N=3
[6] = single 20 mg, Cycle1 Day 1, fasted, N = 1
[7] = single 150 mg, Cycle1 Day 1, fasted, N = 1
[8] = single 200 mg, Cycle1 Day 1, fasted, N=4
[9] = single 400 mg, Cycle1 Day 1, fasted, N=3
[10] = single 600 mg, Cycle1 Day 1, fasted, N = 2

## O=C(O)c1ccc2c(c1)CCCC(c1ccc(Cl)cc1Cl)=C2c1ccc(O[C@H]2CCN(CCCF)C2)cc1 [compound (1), 6-(2,4-dichlorophenyl)-5-[4-[(3S)-1-(3-fluoropropyl)pyrrolidin-3-yl]oxyphenyl]-8,9-dihydro-7H-benzo[7]annulene-2-carboxylic acid]
After repeated administrations
  variability of exposure parameters (average CV): ~45%
After single dose administration
  total variability of exposure parameters (average CV): > 60%
female, human, plasma, oral, 20 mg, single 20 mg, Cycle1 Day 1, fasted, N=3, read-out: Cmax (Mean ± SD)
  Cmax: 187 ± 46.7 ng/mL
female, human, plasma, oral, 150 mg, single 150 mg, Cycle1 Day 1, fasted, N=3, read-out: Cmax (Mean ± SD)
  Cmax: 1310 ± 1380 ng/mL
female, human, plasma, oral, 200 mg, single 200 mg, Cycle1 Day 1, fasted, N=4, read-out: Cmax (Mean ± SD)
  Cmax: 1650 ± 1340 ng/mL
female, human, plasma, oral, 400 mg, single 400 mg, Cycle1 Day 1, fasted, N=3, read-out: Cmax (Mean ± SD)
  Cmax: 4740 ± 2920 ng/mL
female, human, plasma, oral, 20 to 600 mg once a day, fasting, Day 1 and Day 22 Cycle 1, read-out: median time to achieve maximum concentration (tmax)
  Tmax: ~3 h
female, human, plasma, oral, across the 20-600 mg range, read-out: mean apparent systemic clearance
  clearance: 233 to 250 mL/min
female, human, plasma, oral, across the 20-600 mg range, read-out: mean apparent volume of distribution
  Vd: ~120 L
female, human, plasma, oral, estimated over 48 hours after a single dose on Day 1, read-out: mean apparent terminal half-life
  half-life: ≥ 8 h
human, plasma, oral, 20 mg, repeated 20 mg once daily, Cycle1 Day 22, fasted, N=3, read-out: AUC0-24 (Geometric Mean)
  AUC(0-t): 1350 ng·h/mL
human, plasma, oral, 20 mg, repeated 20 mg once daily, Cycle1 Day 22, fasted, N=3, read-out: AUC0-24 (Mean ± SD)
  AUC(0-t): 1630 ± 1120 ng·h/mL
human, plasma, oral, 20 mg, repeated 20 mg once daily, Cycle1 Day 22, fasted, N=3, read-out: Cmax (Geometric Mean)
  Cmax: 203 ng/mL
human, plasma, oral, 20 mg, repeated 20 mg once daily, Cycle1 Day 22, fasted, N=3, read-out: Cmax (Mean ± SD)
  Cmax: 218 ± 95.3 ng/mL
human, plasma, oral, 20 mg, repeated 20 mg once daily, Cycle1 Day 22, fasted, N=3, read-out: tmax (median)
  Tmax: 2.17 h
human, plasma, oral, 20 mg, single 20 mg, Cycle1 Day 1, fasted, N = 1, read-out: Vss/F (Geometric Mean)
  Vd/F: 81.9 L
human, plasma, oral, 20 mg, single 20 mg, Cycle1 Day 1, fasted, N = 1, read-out: Vss/F (Mean ± SD)
  Vd/F: 81.9 L
human, plasma, oral, 20 mg, single 20 mg, Cycle1 Day 1, fasted, N=3, read-out: AUC0-24 (Geometric Mean)
  AUC(0-t): 924 ng·h/mL
human, plasma, oral, 20 mg, single 20 mg, Cycle1 Day 1, fasted, N=3, read-out: Cmax (Geometric Mean)
  Cmax: 183 ng/mL
human, plasma, oral, 20 mg, single 20 mg, Cycle1 Day 1, fasted, N=3, read-out: tmax (median)
  Tmax: 1.52 h
human, plasma, oral, 150 mg, repeated 150 mg once daily, Cycle1 Day 22, fasted, N=2, read-out: AUC0-24 (Geometric Mean)
  AUC(0-t): 15000 ng·h/mL
human, plasma, oral, 150 mg, repeated 150 mg once daily, Cycle1 Day 22, fasted, N=2, read-out: AUC0-24 (Mean ± SD)
  AUC(0-t): 15900 ng·h/mL
human, plasma, oral, 150 mg, repeated 150 mg once daily, Cycle1 Day 22, fasted, N=2, read-out: Cmax (Geometric Mean)
  Cmax: 2230 ng/mL
human, plasma, oral, 150 mg, repeated 150 mg once daily, Cycle1 Day 22, fasted, N=2, read-out: Cmax (Mean ± SD)
  Cmax: 2390 ng/mL
human, plasma, oral, 150 mg, repeated 150 mg once daily, Cycle1 Day 22, fasted, N=2, read-out: tmax (median)
  Tmax: 2.97 h
human, plasma, oral, 150 mg, single 150 mg, Cycle1 Day 1, fasted, N = 1, read-out: Vss/F (Geometric Mean)
  Vd/F: 61.5 L
human, plasma, oral, 150 mg, single 150 mg, Cycle1 Day 1, fasted, N = 1, read-out: Vss/F (Mean ± SD)
  Vd/F: 61.5 L
human, plasma, oral, 150 mg, single 150 mg, Cycle1 Day 1, fasted, N=3, read-out: AUC0-24 (Geometric Mean)
  AUC(0-t): 6860 ng·h/mL
human, plasma, oral, 150 mg, single 150 mg, Cycle1 Day 1, fasted, N=3, read-out: AUC0-24 (Mean ± SD)
  AUC(0-t): 9140 ± 8730 ng·h/mL
human, plasma, oral, 150 mg, single 150 mg, Cycle1 Day 1, fasted, N=3, read-out: Cmax (Geometric Mean)
  Cmax: 884 ng/mL
human, plasma, oral, 150 mg, single 150 mg, Cycle1 Day 1, fasted, N=3, read-out: tmax (median)
  Tmax: 3 h
human, plasma, oral, 200 mg, repeated 200 mg once daily, Cycle1 Day 22, fasted, N=3, read-out: AUC0-24 (Geometric Mean)
  AUC(0-t): 13400 ng·h/mL
human, plasma, oral, 200 mg, repeated 200 mg once daily, Cycle1 Day 22, fasted, N=3, read-out: AUC0-24 (Mean ± SD)
  AUC(0-t): 13900 ± 4380 ng·h/mL
human, plasma, oral, 200 mg, repeated 200 mg once daily, Cycle1 Day 22, fasted, N=3, read-out: Cmax (Geometric Mean)
  Cmax: 2030 ng/mL
human, plasma, oral, 200 mg, repeated 200 mg once daily, Cycle1 Day 22, fasted, N=3, read-out: Cmax (Mean ± SD)
  Cmax: 2150 ± 873 ng/mL
human, plasma, oral, 200 mg, repeated 200 mg once daily, Cycle1 Day 22, fasted, N=3, read-out: tmax (median)
  Tmax: 2.07 h
human, plasma, oral, 200 mg, single 200 mg, Cycle1 Day 1, fasted, N=4, read-out: AUC0-24 (Geometric Mean)
  AUC(0-t): 9760 ng·h/mL
human, plasma, oral, 200 mg, single 200 mg, Cycle1 Day 1, fasted, N=4, read-out: AUC0-24 (Mean ± SD)
  AUC(0-t): 13600 ± 13800 ng·h/mL
human, plasma, oral, 200 mg, single 200 mg, Cycle1 Day 1, fasted, N=4, read-out: Cmax (Geometric Mean)
  Cmax: 1340 ng/mL
human, plasma, oral, 200 mg, single 200 mg, Cycle1 Day 1, fasted, N=4, read-out: Vss/F (Geometric Mean)
  Vd/F: 173 L
human, plasma, oral, 200 mg, single 200 mg, Cycle1 Day 1, fasted, N=4, read-out: Vss/F (Mean ± SD)
  Vd/F: 213 ± 127 L
human, plasma, oral, 200 mg, single 200 mg, Cycle1 Day 1, fasted, N=4, read-out: tmax (median)
  Tmax: 2.98 h
human, plasma, oral, 400 mg, repeated 400 mg once daily, Cycle1 Day 22, fasted, N=3, read-out: AUC0-24 (Geometric Mean)
  AUC(0-t): 29500 ng·h/mL
human, plasma, oral, 400 mg, repeated 400 mg once daily, Cycle1 Day 22, fasted, N=3, read-out: AUC0-24 (Mean ± SD)
  AUC(0-t): 36800 ± 23500 ng·h/mL
human, plasma, oral, 400 mg, repeated 400 mg once daily, Cycle1 Day 22, fasted, N=3, read-out: Cmax (Geometric Mean)
  Cmax: 3370 ng/mL
human, plasma, oral, 400 mg, repeated 400 mg once daily, Cycle1 Day 22, fasted, N=3, read-out: Cmax (Mean ± SD)
  Cmax: 4020 ± 2460 ng/mL
human, plasma, oral, 400 mg, repeated 400 mg once daily, Cycle1 Day 22, fasted, N=3, read-out: tmax (median)
  Tmax: 2.95 h
human, plasma, oral, 400 mg, single 400 mg, Cycle1 Day 1, fasted, N=3, read-out: AUC0-24 (Geometric Mean)
  AUC(0-t): 37600 ng·h/mL
human, plasma, oral, 400 mg, single 400 mg, Cycle1 Day 1, fasted, N=3, read-out: AUC0-24 (Mean ± SD)
  AUC(0-t): 40400 ± 17500 ng·h/mL
human, plasma, oral, 400 mg, single 400 mg, Cycle1 Day 1, fasted, N=3, read-out: Cmax (Geometric Mean)
  Cmax: 4120 ng/mL
human, plasma, oral, 400 mg, single 400 mg, Cycle1 Day 1, fasted, N=3, read-out: Vss/F (Geometric Mean)
  Vd/F: 112 L
human, plasma, oral, 400 mg, single 400 mg, Cycle1 Day 1, fasted, N=3, read-out: Vss/F (Mean ± SD)
  Vd/F: 117 ± 40.6 L
human, plasma, oral, 400 mg, single 400 mg, Cycle1 Day 1, fasted, N=3, read-out: tmax (median)
  Tmax: 3 h
human, plasma, oral, 600 mg, repeated 600 mg once daily, Cycle1 Day 22, fasted, N=3, read-out: AUC0-24 (Geometric Mean)
  AUC(0-t): 41700 ng·h/mL
human, plasma, oral, 600 mg, repeated 600 mg once daily, Cycle1 Day 22, fasted, N=3, read-out: AUC0-24 (Mean ± SD)
  AUC(0-t): 42700 ± 11200 ng·h/mL
human, plasma, oral, 600 mg, repeated 600 mg once daily, Cycle1 Day 22, fasted, N=3, read-out: Cmax (Geometric Mean)
  Cmax: 5510 ng/mL
human, plasma, oral, 600 mg, repeated 600 mg once daily, Cycle1 Day 22, fasted, N=3, read-out: Cmax (Mean ± SD)
  Cmax: 5570 ± 962 ng/mL
human, plasma, oral, 600 mg, repeated 600 mg once daily, Cycle1 Day 22, fasted, N=3, read-out: tmax (median)
  Tmax: 3 h
human, plasma, oral, 600 mg, single 600 mg, Cycle1 Day 1, fasted, N = 2, read-out: Vss/F (Geometric Mean)
  Vd/F: 132 L
human, plasma, oral, 600 mg, single 600 mg, Cycle1 Day 1, fasted, N = 2, read-out: Vss/F (Mean ± SD)
  Vd/F: 137 L
human, plasma, oral, 600 mg, single 600 mg, Cycle1 Day 1, fasted, N=3, read-out: AUC0-24 (Geometric Mean)
  AUC(0-t): 53400 ng·h/mL
human, plasma, oral, 600 mg, single 600 mg, Cycle1 Day 1, fasted, N=3, read-out: AUC0-24 (Mean ± SD)
  AUC(0-t): 61100 ± 36300 ng·h/mL
human, plasma, oral, 600 mg, single 600 mg, Cycle1 Day 1, fasted, N=3, read-out: Cmax (Geometric Mean)
  Cmax: 6160 ng/mL
human, plasma, oral, 600 mg, single 600 mg, Cycle1 Day 1, fasted, N=3, read-out: Cmax (Mean ± SD)
  Cmax: 7010 ± 4180 ng/mL
human, plasma, oral, 600 mg, single 600 mg, Cycle1 Day 1, fasted, N=3, read-out: tmax (median)
  Tmax: 3.03 h
once-daily administrations up to 200 mg
  accumulation on Day 21/22: moderate accumulation
once-daily, doses higher than 200 mg
  accumulation on Day 21/22: no accumulation
[1]
  CLss/F (Mean ± SD): 18.0 ± 13.7 L/h
  Ctrough (Mean ± SD): 8.10 ± 7.16 ng/mL
[2]
  CLss/F (Mean ± SD): 10.6 NC L/hr
  Ctrough (Geometric Mean): (115) [NC] ng/mL
  Ctrough (Mean ± SD): 126 NC ng/mL
[3]
  CLss/F (Mean ± SD): 15.3 ± 4.30 L/h
  Ctrough (Geometric Mean): (59.2) [73.6] ng/mL
  Ctrough (Mean ± SD): 76.1 ± 56.0 ng/mL
[4]
  CLss/F (Mean ± SD): 18.1 ± 17.4 L/h
  Ctrough (Geometric Mean): (253) [84.2] ng/mL
  Ctrough (Mean ± SD): 388 ng/mL and 388 ± 327 ng/mL
[5]
  CLss/F (Mean ± SD): 14.7 ± 3.96 L/h
  Ctrough (Geometric Mean): (314) [56.8] ng/mL
  Ctrough (Mean ± SD): 348 ± 197 ng/mL
[6]
  CL/F (Mean ± SD): 12.2 NC L/hr
  t1/2z (Geometric Mean): (4.86) [NC]^b hr
  t1/2z (Mean ± SD): 4.86 NC hr
[7]
  CL/F (Mean ± SD): 7.26 NC L/hr
  t1/2z (Geometric Mean): (6.42) [NC]^b hr
  t1/2z (Mean ± SD): 6.42 NC hr
[8]
  CL/F (Mean ± SD): 24.2 ± 17.0 L/h
  t1/2z (Geometric Mean): (7.31) [19.5] hr
  t1/2z (Mean ± SD): 7.41 ± 1.45 h
[9]
  CL/F (Mean ± SD): 9.86 ± 5.77 L/h
  t1/2z (Mean ± SD): 10.6 ± 2.33 h
[10]
  CL/F (Mean ± SD): 15.2 NC L/hr
  t1/2z (Geometric Mean): (8.97) [NC]^c hr
  t1/2z (Mean ± SD): 9.45 NC hr
Up to 600 mg
  accumulation after repeated oral administration: limited accumulation
Up to 600 mg, single or multiple once daily administrations
  dose proportionality of exposure (Cmax, AUC0-24h): did not deviate significantly from dose proportionality
